From publication PMC9369794 (Molecules, 2022)

Tests used:
[1] = Hydrodynamic diameter and colloidal stability of aggregates by dynamic light scattering; type: physicochemical; settings: for mean size (hydrodynamic diameter) / zeta potential: 37 °C; for PDI: sd^2/mean size^2
Procedure, shortened: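 Hydrodynamic diameter (number-weighted; PDI as sd^2/mean size^2) and zeta potential were measured by DLS at 173° scattering angle. Samples, 0.3125–5 µM DMSO solutions diluted into PBS, were examined after 6 min incubation at 37 °C.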

[2] = TEAC assay using ABTS radical; settings: 6 min, ratio of slopes to trolox (melatonin dissolved in EtOH); for TEAC from DMSO: stock in DMSO diluted with PBS pH 7.4, 37 °C; for TEAC from THF: stock in THF diluted with PBS pH 7.4, 37 °C
[3] = 0.3125 μM in PBS from DMSO stock
[4] = 0.625 μM in PBS from DMSO stock

mean size (hydrodynamic diameter) [1, 3] | zeta potential [1, 3] | PDI ([1]; 0.3125 μM in PBS) | mean size (hydrodynamic diameter) [1, 4] | zeta potential [1, 4] | PDI ([1]; 0.625 μM in PBS) | mean size (hydrodynamic diameter) ([1]; 1.25 μM in PBS from DMSO stock) | zeta potential ([1]; 1.25 μM in PBS from DMSO stock) | PDI ([1]; 1.25 μM in PBS) | mean size (hydrodynamic diameter) ([1]; 2.5 μM in PBS from DMSO stock) | zeta potential ([1]; 2.5 μM in PBS from DMSO stock) | PDI ([1]; 2.5 μM in PBS) | mean size (hydrodynamic diameter) ([1]; 3.75 μM in PBS from DMSO stock) | zeta potential ([1]; 3.75 μM in PBS from DMSO stock) | PDI ([1]; 3.75 μM in PBS) | mean size (hydrodynamic diameter) ([1]; 5 μM in PBS from DMSO stock) | zeta potential ([1]; 5 μM in PBS from DMSO stock) | PDI ([1]; 5 μM in PBS) | Compound | TEAC from DMSO [2] | TEAC from THF [2]
1050.00 nm | 27.5 mV | 0.0407 | 429.30 nm | 23.4 mV | 0.0162 | 544.50 nm | 21.1 mV | 0.0294 | 195.60 nm | 17.9 mV | 0.0202 | 44.78 nm | 20.0 mV | 0.0267 | 238.20 nm | 20.1 mV | 0.0270 | CC1=C(/C=C/C(C)=C/C=C/C(C)=C/C=C/C=C(C)/C=C/C=C(C)/C=C/C2=C(C)C[C@@H](OC(=O)CCC(=O)O)CC2(C)C)C(C)(C)C[C@H](OC(=O)CCC(=O)O)C1 [Compound 7, Zeaxanthin bissuccinate] | 0.86 | 2.090
303.50 nm | −8.2 mV | 0.0137 | 395.10 nm | −10.2 mV | 0.0455 | 221.50 nm | −17.7 mV | 0.0218 | 26.74 nm | −30.5 mV | 0.0206 | 152.60 nm | −12.3 mV | 0.0268 | 144.20 nm | −27.5 mV | 0.0204 | CC1=C(/C=C/C(C)=C/C=C/C(C)=C/C=C/C=C(C)/C=C/C=C(\C)COC(=O)CCC(=O)O)C(C)(C)CCC1 [Compound 6, 8′-Apo-β-carotenol succinate] | 1.19 | 1.913

Compound | mean size (hydrodynamic diameter) [1, 3] | zeta potential [1, 3] | PDI ([1]; 0.3125 μM in PBS) | mean size (hydrodynamic diameter) [1, 4] | zeta potential [1, 4] | PDI ([1]; 0.625 μM in PBS) | mean size (hydrodynamic diameter) ([1]; 1.25 μM in PBS from DMSO stock) | zeta potential ([1]; 1.25 μM in PBS from DMSO stock) | PDI ([1]; 1.25 μM in PBS) | mean size (hydrodynamic diameter) ([1]; 2.5 μM in PBS from DMSO stock) | zeta potential ([1]; 2.5 μM in PBS from DMSO stock) | PDI ([1]; 2.5 μM in PBS) | mean size (hydrodynamic diameter) ([1]; 3.75 μM in PBS from DMSO stock) | zeta potential ([1]; 3.75 μM in PBS from DMSO stock) | PDI ([1]; 3.75 μM in PBS) | mean size (hydrodynamic diameter) ([1]; 5 μM in PBS from DMSO stock) | zeta potential ([1]; 5 μM in PBS from DMSO stock) | PDI ([1]; 5 μM in PBS) | TEAC from DMSO [2] | TEAC from THF [2]
CC1=C(/C=C/C(C)=C/C=C/C(C)=C/C=C/C=C(C)/C=C/C=C(C)/C=C/C2=C(C)C[C@@H](OC(=O)CCC(=O)O)CC2(C)C)C(C)(C)CCC1 [Compound 8, β-Cryptoxanthin succinate] | 11.04 nm | 34.1 mV | 0.0168 | 25.68 nm | 27.5 mV | 0.0307 | 31.94 nm | 21 mV | 0.0723 | 34.03 nm | 17.6 mV | 0.0360 | 468.90 nm | 2.55 mV | 0.0131 | 14.19 nm | −0.01 mV | 0.0339 |  | 1.827
